For this experiment, the system named is circular corneal fragment extracted from a pig eye ball. Briefly: Corneal walleye/cloudiness and edema of pig corneal fragments soaked in test or control solutions. The settings on record: for corneal edema / degree of corneal walleye/cloudiness (relative value): 100 mM in physiological saline. The arrangement: degree of corneal walleye/cloudiness (relative value): scale not given here; key to corneal edema: ◯: Corneal edema was observed.; —: No corneal edema was observed. As for the experimental part: Experiment to examine the influence of cyclic tetrasaccharide on corneal walleye/cloudiness was conducted as follows: A physiological saline containing 100 mM cyclic tetrasaccharide was previously prepared for use as a test solution by dissolving a cyclic tetrasaccharide crystal, pentahydrate, which had been prepared by the later described method in Example for Reference 2. As a positive control solution, it was prepared a physiological saline containing 100 mM α,α-trehalose, a reagent grade specimen, commercialized by Hayashibara Biochemical Laboratories, Inc., Okayama, Japan; and as a negative control solution, physiological saline was used. Two milliliters of any one of the above three kinds of aqueous solutions were added to respective two wells in a commercialized 24-well culture plate. To each well in each culture plate a circular corneal fragment, which had been extracted from a pig eye ball obtained from a slaughterhouse by using a trephine for corneal transplantation, was placed and macroscopically and microscopically observed for changing in both the degree of corneal walleye/cloudiness and the change of corneal shape such as corneal edema. The macroscopic and microscopic observations were done just after the corneas were placed in the wells at (0) and at 1, 2, 6, 24, 48 and 72 hours after their placing. The methods of macroscopic and microscopic observations and the analysis of the time course change of corneal walleye/cloudiness were conducted by the same ones as used in Experiment 1. Tables 3 and 4 show the transition of corneal walleye/cloudiness and that of the corneal edema, respectively.

For `OCC1OC2OCC3O[C@H](O[C@H]4C(O)C(CO)OC(OCC5O[C@H](O[C@@H](C1O)C2O)C(O)C(O)[C@@H]5O)C4O)C(O)C(O)[C@@H]3O` (stereo partly drawn) [Test solution, cyclo{→6)-α-D-glucopyranosyl-(1→3)-α-D-glucopyranosyl-(1→6)-α-D-glucopyranosyl-(1→3)-α-D-glucopyranosyl-(1→}], the corneal edema result by setting is: (1 hour) “—”; (2 hours) “—”; (6 hours) “—”; (24 hours) “—”; (48 hours) “—”; (72 hours) “—”. Besides, under “time 0”, the corneal edema result is on record as “—”. Besides, the “degree of corneal walleye/cloudiness (relative value)” value turned out to be 11 (1 hour); 11 (2 hours); 13 (6 hours); 16 (24 hours); 16 (48 hours); 19 (72 hours). For the setting “time 0”, the “degree of corneal walleye/cloudiness (relative value)” value is 10. The “corneal edema (in words)” value (100 mM, up to 72 hours) is given as “No occurrence of corneal edema was observed”.
